According to patent US9440952B2, “Compounds inhibiting leucine-rich repeat kinase enzyme activity” (Merck Sharp & Dohme Corp., priority 2013, dated 2016):
Like-named read-outs stand apart in the source and are kept apart here.

Biological target: T1, LRRK2(G2019S mutation, GST-LRRK2(amino acids 970-2527)) (Homo sapiens, UniProt Q5S007, G2019S)
T1 construct: GST-LRRK2(amino acids 970-2527); GST (N); purchased Life Technologies Corporation
Experiment: LRRK2 Km ATP LanthaScreen Assay
Type: biochemical
Conditions: read-out: LRRK2 IC50
Experimental: Unless otherwise noted, all LRRK2 IC50 data presented in tables refers to the LRRK2 Km ATP LanthaScreen™ Assay that is described in the Biological Assay section.
The data presented for the 5 mM and Km ATP LanthaScreen™ Assay represents mean IC50 values based on several test results and may have reasonable. deviations depending on the specific conditions and reagents used. Reagents for the LRRK2 5 mM and Km ATP LanthaScreen™ Assay were purchased from Life Technologies Corporation.
Results are analysed using Assay Data Analyzer.

[1] = Km ATP LanthaScreen, mean IC50 of several tests
[2] = Km ATP LanthaScreen Assay, LRRK2 G2019S, mean IC50 values

T1 sequence (Q5S007 970-2527 G2019S): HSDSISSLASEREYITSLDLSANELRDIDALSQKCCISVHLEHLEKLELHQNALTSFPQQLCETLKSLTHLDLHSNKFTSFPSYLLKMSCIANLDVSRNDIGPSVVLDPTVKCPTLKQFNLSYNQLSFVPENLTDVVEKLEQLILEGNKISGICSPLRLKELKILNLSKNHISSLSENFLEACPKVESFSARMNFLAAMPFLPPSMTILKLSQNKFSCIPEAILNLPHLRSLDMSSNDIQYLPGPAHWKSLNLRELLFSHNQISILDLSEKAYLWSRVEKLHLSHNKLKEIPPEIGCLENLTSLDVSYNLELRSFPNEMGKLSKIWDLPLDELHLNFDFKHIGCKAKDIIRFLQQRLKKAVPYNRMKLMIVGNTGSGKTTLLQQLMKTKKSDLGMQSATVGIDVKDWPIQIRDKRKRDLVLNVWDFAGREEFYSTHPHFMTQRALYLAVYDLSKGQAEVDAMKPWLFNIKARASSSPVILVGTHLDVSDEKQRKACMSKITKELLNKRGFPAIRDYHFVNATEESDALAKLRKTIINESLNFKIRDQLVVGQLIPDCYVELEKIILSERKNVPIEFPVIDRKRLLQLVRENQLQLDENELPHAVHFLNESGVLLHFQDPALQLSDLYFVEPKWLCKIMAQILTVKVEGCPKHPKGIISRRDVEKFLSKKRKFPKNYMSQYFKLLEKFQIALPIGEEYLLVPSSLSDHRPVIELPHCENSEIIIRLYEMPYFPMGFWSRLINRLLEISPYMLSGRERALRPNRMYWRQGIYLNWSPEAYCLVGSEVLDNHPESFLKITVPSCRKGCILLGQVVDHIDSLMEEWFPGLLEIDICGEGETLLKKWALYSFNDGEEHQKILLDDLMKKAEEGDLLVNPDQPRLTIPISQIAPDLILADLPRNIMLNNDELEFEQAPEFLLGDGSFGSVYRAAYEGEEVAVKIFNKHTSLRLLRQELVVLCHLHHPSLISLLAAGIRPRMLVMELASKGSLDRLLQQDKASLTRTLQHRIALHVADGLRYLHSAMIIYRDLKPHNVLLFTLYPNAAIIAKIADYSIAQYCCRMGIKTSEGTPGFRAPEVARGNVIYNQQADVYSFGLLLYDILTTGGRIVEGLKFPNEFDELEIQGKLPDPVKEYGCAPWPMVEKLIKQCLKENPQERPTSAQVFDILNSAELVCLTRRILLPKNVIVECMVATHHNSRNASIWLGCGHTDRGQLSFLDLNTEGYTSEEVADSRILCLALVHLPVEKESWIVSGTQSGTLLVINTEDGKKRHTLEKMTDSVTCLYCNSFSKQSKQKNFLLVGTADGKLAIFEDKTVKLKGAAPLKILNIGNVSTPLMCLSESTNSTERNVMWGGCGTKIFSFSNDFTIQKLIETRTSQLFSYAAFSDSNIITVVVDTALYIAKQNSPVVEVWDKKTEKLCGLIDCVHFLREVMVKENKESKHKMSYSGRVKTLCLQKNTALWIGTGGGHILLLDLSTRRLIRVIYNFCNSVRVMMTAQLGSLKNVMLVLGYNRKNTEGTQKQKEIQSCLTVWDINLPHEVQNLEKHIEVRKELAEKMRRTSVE

| SMILES | IC50 [1] | IC50 [2] |
| --- | --- | --- |
| Oc1cc(-c2ccc3[nH]nc(-c4ccnc(N5CCNCC5)c4)c3c2)ccn1 [Example 120] | 3.4 nM |  |
| COC1CCN(c2cc(-c3n[nH]c4ccc(-c5ccnc(O)c5)cc34)ccn2)CC1 [Example 122] |  | 1.1 nM |
| CN1CCN(c2cc(-c3n[nH]c4ccc(-c5ccnc(O)c5)cc34)ccn2)CC1 [Example 123] |  | 2.7 nM |
| Cc1ccc2[nH]nc(-c3ccnc(N4CCOCC4)c3)c2c1 [Example 124] | 9.6 nM |  |
| c1ccc(-c2ccc3c(-c4ccnc(N5CCOCC5)c4)n[nH]c3c2)cc1 [Example 125] | 34 nM |  |
| CC(O)c1ccc2[nH]nc(-c3ccnc(N4CCOCC4)c3)c2c1 (stereo not shown) [Example 126] | 9.9 nM |  |
| CC(O)c1ccc2[nH]nc(-c3ccnc(N4CCOC(CCO)C4)c3)c2c1 (stereo not shown) [Example 127] |  | 17 nM |
| OCCC1CN(c2cc(-c3n[nH]c4ccc(CO)cc34)ccn2)CCO1 (stereo not shown) [Example 128] |  | 10 nM |
| CC(CO)Nc1cc(-c2n[nH]c3ccc(OC(C)C)cc23)ccn1 (stereo not shown) [Example 129] |  | 2120 nM |
| CC(C)Oc1ccc2[nH]nc(-c3ccnc(NC4Cc5ccccc5C4)c3)c2c1 [Example 130] |  | 13.3 nM |
| CC(C)Oc1ccc2[nH]nc(-c3ccnc(N4CCCC(CO)C4)c3)c2c1 (stereo not shown) [Example 131] |  | 1.5 nM |
| CC(C)Oc1ccc2[nH]nc(-c3ccnc(NCc4ccccn4)c3)c2c1 [Example 132] |  | 2.2 nM |
| CC(C)Oc1ccc2[nH]nc(-c3ccnc(NCCc4ccccn4)c3)c2c1 [Example 133] |  | 0.8 nM |
| CC(C)Oc1ccc2[nH]nc(-c3ccnc(NCC4CC4)c3)c2c1 [Example 134] |  | 2 nM |
| CC(C)Oc1ccc2[nH]nc(-c3ccnc(NCC4CCCO4)c3)c2c1 (stereo not shown) [Example 135] |  | 3.2 nM |
| COCCN(C)c1cc(-c2n[nH]c3ccc(OC(C)C)cc23)ccn1 [Example 136] |  | 4.9 nM |
| CC(C)Oc1ccc2[nH]nc(-c3ccnc(NC4CC4)c3)c2c1 [Example 137] |  | 24.3 nM |
| COC1CCCN(c2cc(-c3n[nH]c4ccc(OC(C)C)cc34)ccn2)C1 (stereo not shown) [Example 138] |  | 11.4 nM |
| CC(C)Oc1ccc2[nH]nc(-c3ccnc(N4CCc5ccccc5C4)c3)c2c1 [Example 139] |  | 18.1 nM |
| CC(C)Oc1ccc2[nH]nc(-c3ccnc(NCCO)c3)c2c1 [Example 140] |  | 7.3 nM |
| Cc1cc(C(=O)Nc2cc(-c3n[nH]c4ccc(OC(C)C)cc34)ccn2)n(C)n1 [Example 141] |  | 51.4 nM |

| SMILES | IC50 [1] | IC50 [2] |
| --- | --- | --- |
| CC(C)Oc1ccc2[nH]nc(-c3ccnc(NC(=O)c4ccno4)c3)c2c1 [Example 142] |  | 21.4 nM |
| CC(C)Oc1ccc2[nH]nc(-c3ccnc(NC(=O)c4ccc(C#N)cc4)c3)c2c1 [Example 143] |  | 113 nM |
| CC(C)Oc1ccc2[nH]nc(-c3ccnc(NC(=O)c4ccccn4)c3)c2c1 [Example 144] |  | 29.2 nM |
| CC(C)Oc1ccc2[nH]nc(-c3ccnc(NC(=O)c4ccc5c(c4)C(=O)NC5)c3)c2c1 [Example 145] |  | 52 nM |
| CC(C)Oc1ccc2[nH]nc(-c3ccnc(NC(=O)c4ccccc4-n4cncn4)c3)c2c1 [Example 146] |  | 36.8 nM |
| CC(C)Oc1ccc2[nH]nc(-c3ccnc(NC(=O)c4cnc(C(C)C)nc4)c3)c2c1 [Example 147] |  | 70.8 nM |
| CC(C)Oc1ccc2[nH]nc(-c3ccnc(NC(=O)c4ccnc(-n5cnnn5)c4)c3)c2c1 [Example 148] |  | 23.9 nM |
| CC(C)CCC(=O)Nc1cc(-c2n[nH]c3ccc(OC(C)C)cc23)ccn1 [Example 149] |  | 79.6 nM |
| COCCC(=O)Nc1cc(-c2n[nH]c3ccc(OC(C)C)cc23)ccn1 [Example 150] |  | 51.7 nM |
| CC(C)Oc1ccc2[nH]nc(-c3ccnc(NC(=O)C(C)c4ccccc4)c3)c2c1 (stereo not shown) [Example 151] |  | 51.9 nM |
| CC(C)Oc1ccc2[nH]nc(-c3ccnc(NC(=O)CC4CC4)c3)c2c1 [Example 152] |  | 35.8 nM |
| CC(C)Oc1ccc2[nH]nc(-c3ccnc(NC(=O)C4CC(=O)C4)c3)c2c1 [Example 153] |  | 29.7 nM |
| CC(C)Oc1ccc2[nH]nc(-c3ccnc(NC(=O)C(C)C)c3)c2c1 [Example 154] |  | 39.4 nM |
| Cc1cc(CC(=O)Nc2cc(-c3n[nH]c4ccc(OC(C)C)cc34)ccn2)on1 [Example 155] |  | 13.4 nM |
| CC(C)Oc1ccc2[nH]nc(-c3ccnc(NC(=O)C4CCCC4)c3)c2c1 [Example 156] |  | 53.1 nM |
| CC(C)Oc1ccc2[nH]nc(-c3ccnc(NC(=O)Cc4ccsc4)c3)c2c1 [Example 157] |  | 34.4 nM |
| CC(C)Oc1ccc2[nH]nc(-c3ccnc(NC(=O)C4CC4c4cncnc4)c3)c2c1 (stereo not shown) [Example 158] |  | 30.9 nM |
| COc1ccc(C2CC2C(=O)Nc2cc(-c3n[nH]c4ccc(OC(C)C)cc34)ccn2)cc1 (stereo not shown) [Example 159] |  | 782 nM |
| CC(C)Oc1ccc2[nH]nc(-c3ccnc(NC(=O)C4CC45CCCC5)c3)c2c1 (stereo not shown) [Example 160] |  | 140 nM |
| Cc1nonc1CC(=O)Nc1cc(-c2n[nH]c3ccc(OC(C)C)cc23)ccn1 [Example 161] |  | 32 nM |
| CC(C)Oc1ccc2[nH]nc(-c3ccnc(NC(=O)CCc4cnn(C)c4)c3)c2c1 [Example 162] |  | 27.2 nM |

| SMILES | IC50 [1] | IC50 [2] |
| --- | --- | --- |
| Cc1nc(C)c(CC(=O)Nc2cc(-c3n[nH]c4ccc(OC(C)C)cc34)ccn2)s1 [Example 163] |  | 34.9 nM |
| CC(C)Oc1ccc2[nH]nc(-c3ccnc(NC(=O)C4CCOCC4)c3)c2c1 [Example 164] |  | 27.7 nM |
| CC(C)Oc1ccc2[nH]nc(-c3ccnc(NC(=O)CC4CCC(=O)N4)c3)c2c1 (stereo not shown) [Example 165] |  | 23.4 nM |
| CC(C)Oc1ccc2[nH]nc(-c3ccnc(NC(=O)C4CC(F)(F)C4)c3)c2c1 [Example 166] |  | 73.5 nM |
| CC(C)Oc1ccc2[nH]nc(-c3ccnc(NC(=O)C4CCN(c5ccccn5)C4)c3)c2c1 (stereo not shown) [Example 167] |  | 78 nM |
| CC(C)Oc1ccc2[nH]nc(-c3ccnc(NC(=O)CC4COCCO4)c3)c2c1 (stereo not shown) [Example 168] |  | 33.4 nM |
| CC(C)Oc1ccc2[nH]nc(-c3ccnc(NC(=O)c4cc(F)cc(F)c4)c3)c2c1 [Example 169] |  | 169 nM |
| CC(C)Oc1ccc2[nH]nc(-c3ccnc(N4CCCC(O)C4)c3)c2c1 (stereo not shown) [Example 170] |  | 6.4 nM |
| CC(C)Oc1ccc2[nH]nc(-c3ccnc(N4CCC(n5ccnc5)C4)c3)c2c1 (stereo not shown) [Example 171] |  | 3.1 nM |
| CO[C@H]1CN(c2cc(-c3n[nH]c4ccc(OC(C)C)cc34)ccn2)C[C@@H]1O [Example 172] |  | 27.1 nM |
| CC(C)Oc1ccc2[nH]nc(-c3ccnc(N4CCC(n5cccn5)CC4)c3)c2c1 [Example 173] |  | 4.9 nM |
| CC(C)Oc1ccc2[nH]nc(-c3ccnc(N4C[C@H](F)[C@@H](F)C4)c3)c2c1 [Example 174] |  | 6.6 nM |
| CC(C)Oc1ccc2[nH]nc(-c3ccnc(N4CCC(c5ccncc5)C4)c3)c2c1 (stereo not shown) [Example 175] |  | 2.2 nM |
| CC(C)Oc1ccc2[nH]nc(-c3ccnc(N4C[C@@H]5C[C@H]4CO5)c3)c2c1 [Example 176] |  | 7.1 nM |
| CO[C@H]1CCN(c2cc(-c3n[nH]c4ccc(OC(C)C)cc34)ccn2)C1 [Example 177] |  | 5.2 nM |
| CO[C@@H]1CCN(c2cc(-c3n[nH]c4ccc(OC(C)C)cc34)ccn2)C1 [Example 178] |  | 5 nM |
| CC(C)Oc1ccc2[nH]nc(-c3ccnc(N4C5CCCC4CC5)c3)c2c1 [Example 179] |  | 17.7 nM |
| CC(C)Oc1ccc2[nH]nc(-c3ccnc(N4CC(n5cnnc5)C4)c3)c2c1 [Example 180] |  | 10.2 nM |
| CC(C)Oc1ccc2[nH]nc(-c3ccnc(N4CC[C@H](O)C4)c3)c2c1 [Example 181] |  | 8.2 nM |
